Results as given in patent US4482560A, “Carbostyril derivatives, and antihistaminic agents containing the same” (priority 1979, dated 1984).

Columns and labels:
[1] = tested on: conjunctiva of the animal; assay: Local anesthesia activity test; type: in vivo, guinea pig; settings: 0.1% solution, 3 drops on conjunctiva, 60 stimulations in 30 minutes, four guinea pigs; saline control 0
Experimental: Guinea pig having about 300 to 350 g of body weight were used as the test animals. Three (3) drops of 0.1%-test compound dissolved in physiological saline solution were administered through 1/4-sized injection needle on the surface of conjuctiva of the test animal. After the administration of the test solution, the conjunctiva of the animal was stimulated ten times in every 5 minutes by a stylet (mandrine) or 1/4-sized injection needle, the stimulations were repeated 6 times within 30 minutes, thus 60 stimulations were given to the conjunctiva of the animal. The number of disappearing of eye-closing-reflexes, during 30 minutes after the administration of the test solution was counted as to the effectiveness of the local anesthesia activity. In this test, four (4) guinea pigs were used as one test group, and the test solution containing 0.1% of the test compound was applied to one test group, and physiological saline solution was, on the other hand, applied to another test group of the guinea pigs as the control.

[2] = tested on: Male mice of ddy-strain; assay: Halothane anesthesia increasing activity; type: in vivo, mouse; settings: oral, 32 mg/kg, 1 hour before 4% Halothane for 3 minutes, male ddy mice; saline control 4.2
Experimental: Male mice of ddy-strain having about 20 g body weight were used. One test group consists of 10 mice. An aqueous Gummi Arabicum suspension of test compound (80 mg of a compound to be tested and 1 g of Gummi Arabicum/100 ml of physiological NaCl solution) was administered orally to each mouse at the dosage of 32 mg of test compound/kg body. One hour after the administration, each mouse was placed in gas respiration chamber (13×13×24 cm) and oxygen gas containing 4% of Halothane [2-bromo-2-chloro-1,1,1-trifluoroethane] was blown into the chamber at the velocity of 2 l/min for 3 minutes. A mouse anaesthetized was taken out from the chamber and the time between the introduction of anesthesia to waking was measured by righting reflex as the index. To mice of control group, 1% Gummi Arabicum aqueous physiological solution was orally administered at the dosage of 0.1 ml/kg body. (Reference: M. J. Turnbull and J. W. Watkins: Br. J. Pharmacol., 58, 27-35 (1976))

[3] = molecular target: ileum of a guinea pig (Cavia porcellus, UniProt P31389); assay: cell-based; settings: histamine-induced retraction of guinea pig ileum, test compound 10^-6 g/ml, 36° C., Van Rossam method; for Kb: read-out: pA2 (converted)
Sequence of ileum of a guinea pig (P31389 whole entry): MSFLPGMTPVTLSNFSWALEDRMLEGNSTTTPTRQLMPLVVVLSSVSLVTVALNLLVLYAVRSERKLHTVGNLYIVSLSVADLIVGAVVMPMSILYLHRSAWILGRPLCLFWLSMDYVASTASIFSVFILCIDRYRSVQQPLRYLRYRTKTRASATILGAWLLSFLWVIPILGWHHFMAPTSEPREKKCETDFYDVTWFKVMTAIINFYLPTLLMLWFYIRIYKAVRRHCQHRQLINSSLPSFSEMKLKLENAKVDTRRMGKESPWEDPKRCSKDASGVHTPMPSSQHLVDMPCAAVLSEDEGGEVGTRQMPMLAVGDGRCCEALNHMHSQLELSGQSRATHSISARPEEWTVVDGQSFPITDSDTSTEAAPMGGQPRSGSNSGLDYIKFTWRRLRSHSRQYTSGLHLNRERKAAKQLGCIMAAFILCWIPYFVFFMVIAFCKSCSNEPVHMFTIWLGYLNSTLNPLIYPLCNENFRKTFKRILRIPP
Experimental: Pharmacological tests of the present compounds were conducted according to said method as follows:
A male guinea pig having 300 to 500 g body weight is killed by blood letting. An ileum having length of 15 cm being enucleated from the ileocecal region is dipped into Tyrode's solution (which is prepared from 8.0 g of NaCl, 0.2 g of KCl, 0.2 g of CaCl2, 1.0 g of glucose, 1.0 g of NaHCO3, 0.065 g of NaHPO4.2H2 O and 0.2135 g of MgCl2.6H2 O to make 1000 ml in total volume by adding water). Then the tissue of ileum is cut to a length of 2.5 to 3.0 cm and suspended in an organ bath filled with 30 ml of Tyrode's solution. The organ bath is kept a temperature of 36° C. while blowing a mixed gas consisting of 5% of CO2 and 95% of O2 into the bath. 10 Minutes after the blowing, 10^-6 M of histamine is added to the bath to examine the sensitivity of the tissue and a reaction curve (control) with respect to the dosage of histamine is obtained. After the dosage of histamine-reaction curve (control) become constant 10^-6 g/ml of a compound to be tested is added to the bath and further histamine is added 5 minutes later to obtain dosage-reaction curve. Retraction of the ileum is recorded on a pen-recorder through an isotonic transducer (TD-112S manufactured by Nihon Koden).

[4] = Acute toxicity test; settings: rat, in vivo; oral, male rats
Source text: Each of the compounds of the present invention was orally administered to male rats to determine the acute toxicity.

SMILES	Number of eye-closing reflex (number of disappearing of eye-closing-reflexes during 30 minutes) [1]	Time (minutes) between introduction of anesthesia and waking (righting reflex) [2]	Kb [3]	LD50 [4]	pA2 [3]
Cc1cc(=O)n(C)c2cc(OCCCN3CCN(Cc4ccc(Cl)cc4)CC3)ccc12 [C, 1,4-Dimethyl-7-{3-[4-(4-chlorobenzyl)-1-piperazin-1-yl]propoxy}-2-oxo-1,2-dihydroquinoline, reference compound]	2.8				
O=C1CCc2c(cccc2OCCCN2CCC(Cc3ccccc3)CC2)N1 [Compound 1, 5-[3-(4-Benzyl-1-piperidyl)propoxy]-3,4-dihydrocarbostyril]	55.1	4.7 min	302 pM	> 1000 mg/kg	
CN1C(=O)CCc2ccc(OCCCN3CCC(Cc4ccccc4)CC3)cc21.O=C(O)C(=O)O [Compound 2, 1-Methyl-7-[3-(4-benzyl-1-piperidyl)propoxy]-3,4-dihydrocarbostyril monooxalate]	58.0	4.9 min	20 pM	> 1000 mg/kg	
O=C1CCc2ccc(OCC(O)CN3CCC(c4ccccc4)CC3)cc2N1 (stereo not shown) [Compound 9, 7-[2-Hydroxy-3-(4-phenyl-1-piperidyl)propoxy]-3,4-dihydrocarbostyril]	29.2	4.1 min	129 pM	> 1000 mg/kg	
CN1C(=O)CCc2c(OCC(O)CN3CCC(Cc4ccccc4)CC3)cccc21.O=C(O)C(=O)O (stereo not shown) [Compound 10, 1-Methyl-5-[2-hydroxy-3-(4-benzyl-1-piperidyl)-propoxy]-3,4-dihydrocarbostyril monooxalate]	37.3	4.8 min	240 pM	> 1000 mg/kg	
C[N+]1(CC(O)COc2cccc3c2CCC(=O)N3)CCC(c2ccccc2)CC1 (stereo not shown) [Compound 11, 4-Phenyl-1-[2-hydroxy-3-(2-oxo-1,2,3,4-tetra-hydroquinolin-5-yloxy)propyl]-1-methyl-piperidium iodide]	27.6	5.2 min	5890 pM	> 1000 mg/kg	
O=c1cc(-c2ccccc2)c2ccc(OCCCN3CCC(c4ccccc4)CC3)cc2[nH]1 [Compound 13, 4-Phenyl-7-[3-(4-phenyl-1-piperidyl)propoxy]-carbostyril monohydrochoride]	28.0	5.6 min	186 pM	> 1000 mg/kg	
CC(=O)C1(c2ccccc2)CCN(CCCOc2ccc3c(c2)NC(=O)CC3)CC1 [Compound 15, 7-{3-[4-(4-Acetyl-4-phenyl)-1-piperidyl]}-3,4-dihydrocarbostyril]	35.5	4.7 min		> 1000 mg/kg	9.92
Cc1cc(=O)n(C)c2ccc(OCCCN3CCN(Cc4ccc(Cl)cc4)CC3)cc12 [D, reference compound]	3.8				
Cc1cc(=O)[nH]c2cc(OCCCN3CCN(Cc4ccccc4)CC3)ccc12 [E, 4-Methyl-7-[3-(4-benzyl-piperazin-1-yl)-propoxy]-2-oxo-1,2-dihydroquinoline, reference compound]	5.2				
